Data from BindingDB's records for doi:10.1016/S0960-894X(97)00125-X (1997).
Square brackets hold non-standard residues; d marks the D form. Peptide text beside a SMILES is read from it. * marks the point of attachment. Propionyl = CCC(=O)*; Mpa = O=C(O)CCS

Key:
[1] = biological target: Stromelysin-1 (MMP-3) (Rattus norvegicus) (UniProt P03957); assay: Compound was tested for its inhibitory activity against Matrix metalloprotease-3 (MMP-3) in adjuvant arthritic rat model of rheumatoid arthritis
[2] = biological target: Stromelysin-1 (MMP-3) (Rattus norvegicus) (UniProt P03957); assay: as above; remark: listed apart in the source

Stromelysin-1 (MMP-3) (Rattus norvegicus), sequence (P03957 whole entry, looked up): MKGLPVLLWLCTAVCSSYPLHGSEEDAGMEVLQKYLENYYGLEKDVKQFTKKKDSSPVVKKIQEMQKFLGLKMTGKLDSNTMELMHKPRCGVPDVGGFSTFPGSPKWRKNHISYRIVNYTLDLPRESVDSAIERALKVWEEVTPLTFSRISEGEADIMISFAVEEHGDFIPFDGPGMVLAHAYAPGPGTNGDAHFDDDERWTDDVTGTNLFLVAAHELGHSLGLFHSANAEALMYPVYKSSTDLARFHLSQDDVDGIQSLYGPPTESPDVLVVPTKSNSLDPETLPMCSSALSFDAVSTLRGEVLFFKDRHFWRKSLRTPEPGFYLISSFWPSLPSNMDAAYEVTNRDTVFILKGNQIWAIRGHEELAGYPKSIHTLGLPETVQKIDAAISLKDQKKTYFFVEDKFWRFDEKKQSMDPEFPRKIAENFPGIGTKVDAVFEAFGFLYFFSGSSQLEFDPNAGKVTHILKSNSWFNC

Question: Which IC50 [1] does the source give for `CNC(=O)[C@H](Cc1ccccc1)NC(=O)[C@H](CC(C)C)NC(=O)CSC` [(S)-4-Methyl-2-(2-methylsulfanyl-acetylamino)-pentanoic acid ((S)-1-methylcarbamoyl-2-phenyl-ethyl)-amide] here?
Answer: > 100000 nM

Question: `CNC(=O)[C@H](Cc1ccccc1)NC(=O)[C@H](C[S+](C)[O-])NC(=O)CS` (stereo partly drawn) [(R)-2-(2-Mercapto-acetylamino)-3-methanesulfinyl-N-((S)-1-methylcarbamoyl-2-phenyl-ethyl)-propionamide] was tested. Which IC50 [1] did it give?
Answer: 8500 nM

Question: For `CNC(=O)[C@H](Cc1ccccc1)NC(=O)[C@H](CC(C)C)NC(=O)CCS` [(S)-2-(3-Mercapto-propionylamino)-4-methyl-pentanoic acid ((S)-1-methylcarbamoyl-2-phenyl-ethyl)-amide] ([Mpa]-Leu-Phe-NHMe), which IC50 [1] is on record?
Answer: > 100000 nM

Question: Which IC50 [1] does the source give for `CNC(=O)[C@H](Cc1ccccc1)NC(=O)[C@H](CC(C)C)NC(=O)CS` [(S)-2-(2-Mercapto-acetylamino)-4-methyl-pentanoic acid ((S)-1-methylcarbamoyl-2-phenyl-ethyl)-amide] here?
Answer: 2600 nM

Question: For `CNC(=O)[C@H](Cc1ccccc1)NC(=O)[C@@H](NC(=O)CS)C(C)O` (stereo partly drawn) [(S)-3-Hydroxy-2-(2-mercapto-acetylamino)-N-((S)-1-methylcarbamoyl-2-phenyl-ethyl)-butyramide], which IC50 [1] is on record?
Answer: > 100000 nM

Question: Which IC50 [1] does the source give for `CCC(=O)N[C@@H](CC(C)C)C(=O)N[C@@H](Cc1ccccc1)C(=O)NC` [(S)-4-Methyl-2-propionylamino-pentanoic acid ((S)-1-methylcarbamoyl-2-phenyl-ethyl)-amide] (Propionyl-Leu-Phe-NHMe) here?
Answer: > 100000 nM

Question: With `CNC(=O)[C@H](Cc1c[nH]c2ccccc12)NC(=O)[C@H](CSC)NC(=O)CS` [(R)-N-[(S)-2-(1H-Indol-3-yl)-1-methylcarbamoyl-ethyl]-2-(2-mercapto-acetylamino)-3-methylsulfanyl-propionamide] as the compound, how does the IC50 [2] read?
Answer: 810 nM

Question: `CNC(=O)[C@H](Cc1cscn1)NC(=O)[C@H](CC(C)C)NC(=O)CS` [(S)-2-(2-Mercapto-acetylamino)-4-methyl-pentanoic acid ((S)-1-methylcarbamoyl-2-thiazol-4-yl-ethyl)-amide] was tested. Which IC50 [2] did it give?
Answer: 430 nM

Question: How did the IC50 [2] turn out when `CNC(=O)[C@H](Cc1c[nH]c2ccccc12)NC(=O)[C@H](CC(C)C)NC(=O)CS` [(S)-2-(2-Mercapto-acetylamino)-4-methyl-pentanoic acid [(S)-2-(1H-indol-3-yl)-1-methylcarbamoyl-ethyl]-amide] was run?
Answer: 430 nM

Question: With `CNC(=O)[C@H](Cc1ccccc1)NC(=O)[C@H](CSC)NC(=O)CS` [(R)-2-(2-Mercapto-acetylamino)-N-((S)-1-methylcarbamoyl-2-phenyl-ethyl)-3-methylsulfanyl-propionamide] as the compound, how does the IC50 [1] read?
Answer: 650 nM
